Data taken from ChEMBL document CHEMBL1133764, “Synthesis and cytokine modulation properties of pyrrolo[2, 3-d]-4-pyrimidone nucleosides” (2000).

Columns and labels:
[1] = system: T-cell line; test: Effect (10 uM) on PMA/ION-stimulated T-cell expression of the type 1 cytokine IFN gamma, which was determined in cell free supernatants by ELISA; format: functional, cell-based; conditions: Homo sapiens
[2] = system: T-cell line; test: Effect (10 uM) on PMA/ION-stimulated T-cell expression of the type 2 cytokine IL-4, which was determined in cell free supernatants by ELISA; format: functional, cell-based; conditions: Homo sapiens
[3] = system: T-cell line; test: Effect at 10 uM on PMA/ION-stimulated T-cell expression of the type 1 cytokine IFNgamma, determined in cell free supernatants by ELISA; format: functional, cell-based; conditions: Homo sapiens
[4] = system: T-cell line; test: Effect at 10 uM on PMA/ION-stimulated T-cell expression of the type 2 cytokine IL-4, determined in cell free supernatants by ELISA; format: functional, cell-based; conditions: Homo sapiens
[5] = system: T-cell line; test: Effect on PMA/ION-stimulated T-cell expression of the type 1 cytokine,TNF-alpha was determined in cell free supernatants by ELISA; format: functional, cell-based; conditions: Homo sapiens
[6] = system: T-cell line; test: Effect on PMA/ION-stimulated T-cell expression of the type 1 cytokine, IFNgamma was determined in cell free supernatants by ELISA; format: functional, cell-based; conditions: Homo sapiens
[7] = system: T-cell line; test: Effect on PMA/ION-stimulated T-cell expression of the type 1 cytokine,IL-2 was determined in cell free supernatants by ELISA; format: functional, cell-based; conditions: Homo sapiens
[8] = system: T-cell line; test: Effect on PMA/ION-stimulated T-cell expression of the type 1 cytokine,IL-5 was determined in cell free supernatants by ELISA; format: functional, cell-based; conditions: Homo sapiens
[9] = system: T-cell line; test: Effect (10 uM) on PMA/ION-stimulated T-cell expression of the type 1 cytokine IFNgamma, which was determined in cell free supernatants by ELISA; format: functional, cell-based; conditions: Homo sapiens
[10] = system: T-cell line; test: Effect (10 uM) on PMA/ION-stimulated T-cell expression of the type 1 cytokine IL-2, which was determined in cell free supernatants by ELISA; format: functional, cell-based; conditions: Homo sapiens
[11] = system: T-cell line; test: Effect (10 uM) on PMA/ION-stimulated T-cell expression of the type 1 cytokine TNF-alpha, which was determined in cell free supernatants by ELISA; format: functional, cell-based; conditions: Homo sapiens
[12] = system: T-cell line; test: Effect (10 uM) on PMA/ION-stimulated T-cell expression of the type 2 cytokine IL-5, which was determined in cell free supernatants by ELISA; format: functional, cell-based; conditions: Homo sapiens
[13] = system: T-cell line; test: Effect (10 uM) on PMA/ION-stimulated T-cell expression of the type 2 cytokine, IL-4 was determined in cell free supernatants by ELISA; format: functional, cell-based; conditions: Homo sapiens
[14] = system: T-cell line; test: Effect (10 uM) on PMA/ION-stimulated T-cell expression of the type 1 cytokine, IL-5 was determined in cell free supernatants by ELISA; format: functional, cell-based; conditions: Homo sapiens
[15] = system: T-cell line; test: Effect (10 uM) on PMA/ION-stimulated T-cell expression of the type 1 cytokine,IL-2 was determined in cell free supernatants by ELISA; format: functional, cell-based; conditions: Homo sapiens
[16] = system: T-cell line; test: Effect (10 uM) on PMA/ION-stimulated T-cell expression of the type 1 cytokine,TNF-alpha was determined in cell free supernatants by ELISA; format: functional, cell-based; conditions: Homo sapiens
[17] = system: T-cell line; test: (§1) Effect (10 uM) on PMA/ION-stimulated T-cell expression of the type 1 cytokine, IFNgamma was determined in cell free supernatants by ELISA; format: functional, Homo sapiens
[18] = system: T-cell line; test: as §1; format: functional, cell-based; conditions: Homo sapiens

Compound	Concentration [1] [pg/mL]	Concentration [2] [pg/mL]	Concentration [3] [pg/mL]	Concentration [4] [pg/mL]	further results
C[C@H](O)[C@H]1OC(n2cc(C(=N)NO)c3c(O)ncnc32)[C@H](O)[C@@H]1O (single isomer, unassigned; (+))	11400	162	–	–	–
C[C@H]1OC(n2cc(C(=N)N)c3c(O)ncnc32)[C@H](O)[C@@H]1O (single isomer, unassigned; (+))	–	–	1310	152	–
C[C@@H](O)[C@H]1OC(n2cc(C#N)c3c(O)ncnc32)[C@H](O)[C@@H]1O (stereo not given in full)	–	–	13300	160	–
N=C(N)c1cn(C2CCC(CO)O2)c2ncnc(O)c12 (single isomer, unassigned; (+))	13300	234	–	–	–
NCc1cn([C@@H]2O[C@H](CO)[C@@H](O)[C@H]2O)c2nc[nH]c(=O)c12	–	–	9340	125	–
C[C@]1(CO)OC(n2cc(C#N)c3c(O)ncnc32)[C@H](O)[C@@H]1O (single isomer, unassigned; (+))	–	–	9030	147	–
N=C(N)c1cn([C@@H]2O[C@H](CO)[C@@H](O)[C@@H]2O)c2nc[nH]c(=O)c12	–	–	7790	131	–
N/C(=N\O)c1cn([C@H]2O[C@@H](CO)[C@H](O)[C@@H]2O)c2nc[nH]c(=O)c12	9660	142	–	–	–
NCc1cn([C@@H]2O[C@H](CO)[C@@H](O)[C@@H]2O)c2nc[nH]c(=O)c12	–	–	10800	142	–
NC(=S)c1cn(C2O[C@H](CO)[C@@H](O)[C@H]2O)c2ncnc(O)c12 (stereo not given in full)	–	–	–	176	Concentration [5]: 2220 pg/mL; Concentration [6]: 7480 pg/mL; Concentration [7]: 23000 pg/mL; Concentration [8]: 59 pg/mL
C[C@@H](O)[C@H]1OC(n2cc(C(=N)N)c3c(O)ncnc32)[C@H](O)[C@@H]1O (single isomer, unassigned; (+))	–	–	12100	159	–
C[C@H]1OC(n2cc(C(=N)NO)c3c(O)ncnc32)[C@H](O)[C@@H]1O (single isomer, unassigned; (+))	10600	149	–	–	–
N=C(NN)c1cn([C@@H]2O[C@H](CO)[C@@H](O)[C@@H]2O)c2nc[nH]c(=O)c12	–	–	9860	117	–
N/C(=N\O)c1cn([C@@H]2O[C@H](CO)[C@@H](O)[C@@H]2O)c2nc[nH]c(=O)c12	10400	132	–	–	–
N#CC1=CN([C@H]2C[C@H](O)[C@@H](CO)O2)C2=NC=NC(=O)C12 (single isomer, unassigned; (+))	–	–	11900	194	–
C[C@@H](O)[C@H]1OC(n2cc(C(=N)NO)c3c(O)ncnc32)[C@H](O)[C@@H]1O (stereo not given in full)	12300	186	–	–	–
N/C(=N\O)c1cn([C@@H]2O[C@H](CO)[C@@H](O)[C@H]2O)c2nc[nH]c(=O)c12	–	236	–	–	Concentration [9]: 7270 pg/mL; Concentration [10]: 18000 pg/mL; Concentration [11]: 1590 pg/mL; Concentration [12]: 73 pg/mL
CCCCCCCCCCCCC(=O)O[C@@H]1[C@@H](C)[C@@]2(O)[C@@H](C=C(CO)C[C@]3(O)C(=O)C(C)=C[C@@H]23)[C@@H]2C(C)(C)[C@]12OC(C)=O.C[C@H](CCC(=O)O)C[C@H](C)C[C@H](C)/C(O)=C/C(=O)[C@H](C)C[C@H](C)C/C=C/[C@@H](C)[C@@H](O)[C@@H](C)[C@@H](O)C[C@@H]1CC[C@@](C)([C@H]2CC[C@@](C)([C@@H](C)O)O2)O1	–	–	10400	–	Concentration [5]: 2150 pg/mL; Concentration [6]: 10400 pg/mL; Concentration [7]: 27700 pg/mL; Concentration [8]: 93 pg/mL; Concentration [13]: 162 pg/mL
N=C(N)c1cn([C@@H]2O[C@H](CO)[C@@H](O)[C@H]2O)c2nc[nH]c(=O)c12	–	–	–	< 557	Concentration [14]: < 127 pg/mL; Concentration [15]: < 12700 pg/mL; Concentration [16]: < 968 pg/mL; IFN gamma concentration [17]: <5919 pg/mL
N=C(NN)c1cn([C@@H]2O[C@H](CO)[C@@H](O)[C@H]2O)c2nc[nH]c(=O)c12	–	–	11900	207	–
N/C(=N\O)c1cn(C2CCC(CO)O2)c2ncnc(O)c12 (single isomer, unassigned; (+))	11200	152	–	–	–
C[C@]1(CO)OC(n2cc(C(=N)N)c3c(O)ncnc32)[C@H](O)[C@@H]1O (single isomer, unassigned; (+))	9550	144	–	–	–
N=C(N)C1=CN([C@H]2C[C@H](O)[C@@H](CO)O2)C2=NC=NC(=O)C12 (single isomer, unassigned; (+))	14700	258	–	–	–
C[C@H](O)[C@H]1OC(n2cc(C#N)c3c(O)ncnc32)[C@H](O)[C@@H]1O (single isomer, unassigned; (+))	–	–	10900	146	–
C[C@H](O)[C@H]1OC(n2cc(C(=N)N)c3c(O)ncnc32)[C@H](O)[C@@H]1O (single isomer, unassigned; (+))	–	–	10700	146	–
C[C@H]1OC(n2cc(C#N)c3c(O)ncnc32)[C@H](O)[C@@H]1O (single isomer, unassigned; (+))	–	–	9140	147	–
NC(=O)c1cn(C2O[C@H](CO)[C@@H](O)[C@H]2O)c2ncnc(O)c12 (single isomer, unassigned; (+))	–	–	–	183	Concentration [14]: 67 pg/mL; Concentration [18]: 9140 pg/mL; Concentration [15]: 24400 pg/mL; Concentration [16]: 2170 pg/mL
